According to PMC10698177, “Discovery of type II polyketide synthase-like enzymes for the biosynthesis of cispentacin” (Nature Communications, 2023):

How the values were obtained:
Assay type in all cases: biochemical
[1] = molecular target: T1, AmcH (Streptomyces novoguineensis, UniProt A0A4Y5QVH7); assay: LC-ESI-HRMS of acyl-AmcB; details: 200 uM AmcB, 0.2 uM AmcH, 1 mM 2-OG, 5 mM ATP, 25 mM MgCl2, 50 mM Tris-HCl pH 8.0, 30 °C, 1 h
T1 construct: AmcH purified from Streptomyces albus G153; AmcB (holo form, with phosphopantetheine arm) from E. coli BL21(DE3), pET26b(+), is the acyl acceptor; with Acyl carrier protein AmcB
T1 sequence (A0A4Y5QVH7 1-460): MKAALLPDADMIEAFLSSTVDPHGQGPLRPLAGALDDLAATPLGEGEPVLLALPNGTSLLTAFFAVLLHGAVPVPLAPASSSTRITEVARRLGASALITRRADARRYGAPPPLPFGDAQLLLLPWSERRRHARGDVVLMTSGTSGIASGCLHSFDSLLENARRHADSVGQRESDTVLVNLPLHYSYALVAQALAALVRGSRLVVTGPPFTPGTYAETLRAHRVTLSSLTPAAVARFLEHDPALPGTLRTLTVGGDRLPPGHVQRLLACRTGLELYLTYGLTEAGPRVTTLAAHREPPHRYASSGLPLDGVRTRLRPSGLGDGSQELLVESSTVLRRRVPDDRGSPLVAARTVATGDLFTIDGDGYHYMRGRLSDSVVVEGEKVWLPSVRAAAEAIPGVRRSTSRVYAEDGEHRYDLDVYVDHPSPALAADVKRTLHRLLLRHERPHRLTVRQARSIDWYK

[2] = molecular target: T1, AmcH; assay: HPLC of ATP consumption and AMP formation; details: 500 uM AmcB, 1 uM AmcH, 1 mM 2-OG, 2 mM ATP, 25 mM MgCl2, pH 8.0, 30 °C
[3] = molecular target: T2, eFabI (Escherichia coli, UniProt P0AEK4); assay: PPant ejection assay / LC-HRMS of 4-AmcB formation; details: 1 mM NADH, 200 uM gel-filtered 3-AmcB, 8 uM enzyme, 20 mM Tris-HCl pH 8.0, 150 mM NaCl, 30 °C, 1 h
T2 construct: gene fabI; C-terminal His tag, pET26b(+), E. coli BL21(DE3)
T2 sequence (P0AEK4 2-262): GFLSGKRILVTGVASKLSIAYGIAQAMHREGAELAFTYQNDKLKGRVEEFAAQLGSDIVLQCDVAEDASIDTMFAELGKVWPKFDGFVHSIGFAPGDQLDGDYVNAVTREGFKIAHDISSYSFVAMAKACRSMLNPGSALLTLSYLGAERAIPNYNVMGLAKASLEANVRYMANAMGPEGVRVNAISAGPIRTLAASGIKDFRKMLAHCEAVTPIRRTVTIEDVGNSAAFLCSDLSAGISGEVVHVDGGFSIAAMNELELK

[4] = molecular target: T3, sFabI (Streptomyces albidoflavus, UniProt D6BBL6); assay: PPant ejection assay / LC-HRMS of 4-AmcB formation; details: 1 mM NADH, 200 uM gel-filtered 3-AmcB, 8 uM enzyme, 20 mM Tris-HCl pH 8.0, 150 mM NaCl, 30 °C, 1 h
T3 construct: gene fabI; C-terminal His tag, pET26b(+), E. coli BL21(DE3)
T3 sequence (D6BBL6 1-259): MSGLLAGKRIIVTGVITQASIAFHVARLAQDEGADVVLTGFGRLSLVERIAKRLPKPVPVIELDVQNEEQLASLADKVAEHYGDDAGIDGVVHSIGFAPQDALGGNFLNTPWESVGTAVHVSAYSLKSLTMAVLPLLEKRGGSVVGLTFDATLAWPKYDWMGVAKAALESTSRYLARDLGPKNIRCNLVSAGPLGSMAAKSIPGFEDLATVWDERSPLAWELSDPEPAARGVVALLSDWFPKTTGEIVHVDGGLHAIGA

Compound: O=C(O)CCC(=O)C(=O)O [2-OG]
- LC-ESI-HRMS of acyl-AmcB [1]: AmcH loads only 2-OG onto AmcB to form 2-oxoglutaryl-AmcB

Compound: Nc1ncnc2c1ncn2[C@@H]1O[C@H](COP(=O)(O)OP(=O)(O)OP(=O)(O)O)[C@@H](O)[C@H]1O [ATP]
- HPLC of ATP consumption and AMP formation [2]: consumption of ATP and the generation of AMP occurred in both AmcB- and 2-OG-dependent manners

Compound: NC(=O)C1=CN([C@@H]2O[C@H](COP(=O)(O)OP(=O)(O)OC[C@H]3O[C@@H](n4cnc5c(N)ncnc54)[C@H](O)[C@@H]3O)[C@@H](O)[C@H]2O)C=CC1 [NADH]
- PPant ejection assay / LC-HRMS of 4-AmcB formation [3]: eFabI and sFabI specifically catalyze the reduction of 3-AmcB to yield 4-AmcB
- PPant ejection assay / LC-HRMS of 4-AmcB formation [4]: eFabI and sFabI specifically catalyze the reduction of 3-AmcB to yield 4-AmcB
